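Exposure lasted 48 hours, with cells grown in 96-well plates and compounds tested at five concentrations. TGI: concentration producing complete growth inhibition.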 Bounds are passed on as bounds.

For the first test, the system named is A549 NSCLC. Briefly: NCI tumour cell line growth inhibition, 48 h.
`Cc1ccccc1N/C(=C(/C(Cl)=C(Cl)Cl)[N+](=O)[O-])n1nnc2ccccc21` came in with a TGI of over 100 µM.

For `CCOC(=O)c1nc2ccc(C(F)(F)F)cc2[nH]c1=O`, the TGI was over 100 µM.

On to `CCC(=O)O[C@H]1CC[C@H]2[C@@H]3CCC4=C/C(=N/OC(=O)c5cccc6c(=O)c7ccccc7[nH]c56)CC[C@]4(C)[C@H]3CC[C@]12C`, for which the TGI is over 100 µM.

In turn, `COc1ccc2[nH]c3c(c2c1)CC(=S)N1CCCC(CC3=O)C1` (configuration not stated) had a TGI of over 100 µM.

`O=C(O/C=C\OC1CCCC1(c1ccccc1)c1ccccc1)c1ccccc1` (configuration not stated) came in with a TGI of over 68.5 µM.

The next test has as its system OVCAR-8 ovarian. Briefly: NCI tumour cell line growth inhibition, 48 h.
Compound `CCCCCCCCCCCCC/C=C/[C@@H](O)[C@H](COC1OC(CO)C(OC2OC(CO)C(O)C(OC3(C(=O)O)CC(O)C(NC(C)=O)C(C(O)C(O)CO)O3)C2O)C(O)C1O)N=[N+]=[N-]` (some centres not stated) returned a TGI of 44.9 µM.

Compound `COc1ccc2c(c1)C(=O)OCCC2` returned a TGI of over 100 µM.

For the compound `CCOC(=O)c1c(NC(=O)OC)c(C#N)c2n1CCCCC2`, the TGI was over 100 µM.

Turning to `O=C(/C=C/c1ccc(OCc2cccc(Cl)c2)cc1)NO`, the TGI was found to be 20.3 µM.

`COc1cc(C(C)=O)cc(C(=O)N(C(C)C)C(C)C)c1[Si](C)(C)C` showed a TGI of over 100 µM.

For the compound `Cc1c(C)n(-c2ccccc2)c2nc(S(C)(=O)=O)nc(S(C)(=O)=O)c12`, the TGI was found to be 4.94 µM.

`CCOC(=O)c1nc2ccc(C(F)(F)F)cc2[nH]c1=O` yielded a TGI of over 100 µM.

As to `CCC(=O)O[C@H]1CC[C@H]2[C@@H]3CCC4=C/C(=N/OC(=O)c5cccc6c(=O)c7ccccc7[nH]c56)CC[C@]4(C)[C@H]3CC[C@]12C`, the TGI is over 100 µM.

The compound `COc1ccc2[nH]c3c(c2c1)CC(=S)N1CCCC(CC3=O)C1` (configuration not stated) showed a TGI of over 100 µM.

For the compound `O=C(O/C=C\OC1CCCC1(c1ccccc1)c1ccccc1)c1ccccc1` (configuration not stated), the TGI is 12.1 µM.

In another test the test system is MALME-3M melanoma. Briefly: NCI tumour cell line growth inhibition, 48 h.
In turn, `CCCCCCCCCCCCC/C=C/[C@@H](O)[C@H](COC1OC(CO)C(OC2OC(CO)C(O)C(OC3(C(=O)O)CC(O)C(NC(C)=O)C(C(O)C(O)CO)O3)C2O)C(O)C1O)N=[N+]=[N-]` (some centres not stated) registered a TGI of 55.5 µM.

Compound `Cc1c(C)n(-c2ccccc2)c2nc(S(C)(=O)=O)nc(S(C)(=O)=O)c12` yielded a TGI of 2.92 µM.

The compound `Cc1ccccc1N/C(=C(/C(Cl)=C(Cl)Cl)[N+](=O)[O-])n1nnc2ccccc21` showed a TGI of 27.9 µM.

For `COc1ccc2[nH]c3c(c2c1)CC(=S)N1CCCC(CC3=O)C1` (configuration not stated), the TGI is over 100 µM.

The next test deals with ACHN renal. Briefly: NCI tumour cell line growth inhibition, 48 h.
The compound `CCCCCCCCCCCCC/C=C/[C@@H](O)[C@H](COC1OC(CO)C(OC2OC(CO)C(O)C(OC3(C(=O)O)CC(O)C(NC(C)=O)C(C(O)C(O)CO)O3)C2O)C(O)C1O)N=[N+]=[N-]` (some centres not stated) had a TGI of over 100 µM.

The compound `COc1ccc2c(c1)C(=O)OCCC2` had a TGI of over 100 µM.

As to `CCOC(=O)c1c(NC(=O)OC)c(C#N)c2n1CCCCC2`, the TGI is over 100 µM.

In turn, `O=C(/C=C/c1ccc(OCc2cccc(Cl)c2)cc1)NO` had a TGI of 23.5 µM.

In turn, `COc1cc(C(C)=O)cc(C(=O)N(C(C)C)C(C)C)c1[Si](C)(C)C` showed a TGI of over 100 µM.

The compound `COc1ccc(-c2nc(-c3cc4c(ccc5ccccc54)oc3=O)cs2)cc1` displayed a TGI of over 100 µM.

Compound `Cc1cc(C)c(C(=O)c2nnc3ccccc3c2N)c(C)c1` displayed a TGI of over 100 µM.

The compound `Cc1c(C)n(-c2ccccc2)c2nc(S(C)(=O)=O)nc(S(C)(=O)=O)c12` showed a TGI of 2.91 µM.

With `Cc1ccccc1N/C(=C(/C(Cl)=C(Cl)Cl)[N+](=O)[O-])n1nnc2ccccc21`, the TGI was over 100 µM.

Compound `CCOC(=O)c1nc2ccc(C(F)(F)F)cc2[nH]c1=O` returned a TGI of over 100 µM.

The compound `CCC(=O)O[C@H]1CC[C@H]2[C@@H]3CCC4=C/C(=N/OC(=O)c5cccc6c(=O)c7ccccc7[nH]c56)CC[C@]4(C)[C@H]3CC[C@]12C` yielded a TGI of over 100 µM.

For the compound `COc1ccc2[nH]c3c(c2c1)CC(=S)N1CCCC(CC3=O)C1` (configuration not stated), the TGI is over 100 µM.

`O=C(O/C=C\OC1CCCC1(c1ccccc1)c1ccccc1)c1ccccc1` (configuration not stated) showed a TGI of 13.9 µM.

Another test concerns HL-60(TB) leukemia. Briefly: NCI tumour cell line growth inhibition, 48 h.
`CCCCCCCCCCCCC/C=C/[C@@H](O)[C@H](COC1OC(CO)C(OC2OC(CO)C(O)C(OC3(C(=O)O)CC(O)C(NC(C)=O)C(C(O)C(O)CO)O3)C2O)C(O)C1O)N=[N+]=[N-]` (some centres not stated) returned a TGI of 80.8 µM.

Take `COc1ccc2c(c1)C(=O)OCCC2`: the TGI was over 100 µM.

In the case of `CCOC(=O)c1c(NC(=O)OC)c(C#N)c2n1CCCCC2`, the TGI is over 100 µM.

For the compound `O=C(/C=C/c1ccc(OCc2cccc(Cl)c2)cc1)NO`, the TGI is 35.9 µM.

Turning to `COc1cc(C(C)=O)cc(C(=O)N(C(C)C)C(C)C)c1[Si](C)(C)C`, the TGI was over 100 µM.

`COc1ccc(-c2nc(-c3cc4c(ccc5ccccc54)oc3=O)cs2)cc1` displayed a TGI of over 100 µM.

Turning to `Cc1cc(C)c(C(=O)c2nnc3ccccc3c2N)c(C)c1`, the TGI turned out to be 73.4 µM.

Compound `Cc1c(C)n(-c2ccccc2)c2nc(S(C)(=O)=O)nc(S(C)(=O)=O)c12` came in with a TGI of 3.35 µM.

`CCOC(=O)c1nc2ccc(C(F)(F)F)cc2[nH]c1=O` had a TGI of over 100 µM.

With `O=C(O/C=C\OC1CCCC1(c1ccccc1)c1ccccc1)c1ccccc1` (configuration not stated), the TGI is 4.68 µM.

For another test, the system named is NCI-H522 lung. Briefly: NCI tumour cell line growth inhibition, 48 h.
In the case of `CCCCCCCCCCCCC/C=C/[C@@H](O)[C@H](COC1OC(CO)C(OC2OC(CO)C(O)C(OC3(C(=O)O)CC(O)C(NC(C)=O)C(C(O)C(O)CO)O3)C2O)C(O)C1O)N=[N+]=[N-]` (some centres not stated), the TGI worked out at 70.5 µM.

`COc1ccc2c(c1)C(=O)OCCC2`: the TGI was over 100 µM.

With `O=C(/C=C/c1ccc(OCc2cccc(Cl)c2)cc1)NO`, the TGI came out at 49.4 µM.

For `COc1cc(C(C)=O)cc(C(=O)N(C(C)C)C(C)C)c1[Si](C)(C)C`, the TGI is over 100 µM.

In turn, `Cc1c(C)n(-c2ccccc2)c2nc(S(C)(=O)=O)nc(S(C)(=O)=O)c12` returned a TGI of 3.59 µM.

Compound `CCC(=O)O[C@H]1CC[C@H]2[C@@H]3CCC4=C/C(=N/OC(=O)c5cccc6c(=O)c7ccccc7[nH]c56)CC[C@]4(C)[C@H]3CC[C@]12C` returned a TGI of 56.1 µM.

Turning to `O=C(O/C=C\OC1CCCC1(c1ccccc1)c1ccccc1)c1ccccc1` (configuration not stated), the TGI turned out to be 43 µM.

The next test relates to TK-10 renal. Briefly: NCI tumour cell line growth inhibition, 48 h.
`CCCCCCCCCCCCC/C=C/[C@@H](O)[C@H](COC1OC(CO)C(OC2OC(CO)C(O)C(OC3(C(=O)O)CC(O)C(NC(C)=O)C(C(O)C(O)CO)O3)C2O)C(O)C1O)N=[N+]=[N-]` (some centres not stated) displayed a TGI of over 100 µM.

`COc1ccc2c(c1)C(=O)OCCC2` came in with a TGI of over 100 µM.

Compound `CCOC(=O)c1c(NC(=O)OC)c(C#N)c2n1CCCCC2` showed a TGI of over 100 µM.

(Values after PubChem BioAssay (NCI).)
